In ChEMBL document CHEMBL4825716, “Novel N-Heteroaryl Quinazolin-2-amine Derivatives as LRRK2 Inhibitors for Treating Parkinson's Disease” (ACS Med Chem Lett, 2021):

molecular target: Leucine-rich repeat serine/threonine-protein kinase 2 (Homo sapiens, UniProt Q5S007, G2019S); test: Inhibition of Kinase tracer 236 binding to GST-tagged truncated human LRRK2 G2019S (970 to 2527 residues) mutant using fluorescein labeled LRRKtide peptide as substrate preincubated for 15 mins followed by substrate addition measured after 90 mins in presence of ATP at Km concentration by TR-FRET Lanthascreen assay
Sequence (Q5S007 whole entry G2019S, the tested form may be a part): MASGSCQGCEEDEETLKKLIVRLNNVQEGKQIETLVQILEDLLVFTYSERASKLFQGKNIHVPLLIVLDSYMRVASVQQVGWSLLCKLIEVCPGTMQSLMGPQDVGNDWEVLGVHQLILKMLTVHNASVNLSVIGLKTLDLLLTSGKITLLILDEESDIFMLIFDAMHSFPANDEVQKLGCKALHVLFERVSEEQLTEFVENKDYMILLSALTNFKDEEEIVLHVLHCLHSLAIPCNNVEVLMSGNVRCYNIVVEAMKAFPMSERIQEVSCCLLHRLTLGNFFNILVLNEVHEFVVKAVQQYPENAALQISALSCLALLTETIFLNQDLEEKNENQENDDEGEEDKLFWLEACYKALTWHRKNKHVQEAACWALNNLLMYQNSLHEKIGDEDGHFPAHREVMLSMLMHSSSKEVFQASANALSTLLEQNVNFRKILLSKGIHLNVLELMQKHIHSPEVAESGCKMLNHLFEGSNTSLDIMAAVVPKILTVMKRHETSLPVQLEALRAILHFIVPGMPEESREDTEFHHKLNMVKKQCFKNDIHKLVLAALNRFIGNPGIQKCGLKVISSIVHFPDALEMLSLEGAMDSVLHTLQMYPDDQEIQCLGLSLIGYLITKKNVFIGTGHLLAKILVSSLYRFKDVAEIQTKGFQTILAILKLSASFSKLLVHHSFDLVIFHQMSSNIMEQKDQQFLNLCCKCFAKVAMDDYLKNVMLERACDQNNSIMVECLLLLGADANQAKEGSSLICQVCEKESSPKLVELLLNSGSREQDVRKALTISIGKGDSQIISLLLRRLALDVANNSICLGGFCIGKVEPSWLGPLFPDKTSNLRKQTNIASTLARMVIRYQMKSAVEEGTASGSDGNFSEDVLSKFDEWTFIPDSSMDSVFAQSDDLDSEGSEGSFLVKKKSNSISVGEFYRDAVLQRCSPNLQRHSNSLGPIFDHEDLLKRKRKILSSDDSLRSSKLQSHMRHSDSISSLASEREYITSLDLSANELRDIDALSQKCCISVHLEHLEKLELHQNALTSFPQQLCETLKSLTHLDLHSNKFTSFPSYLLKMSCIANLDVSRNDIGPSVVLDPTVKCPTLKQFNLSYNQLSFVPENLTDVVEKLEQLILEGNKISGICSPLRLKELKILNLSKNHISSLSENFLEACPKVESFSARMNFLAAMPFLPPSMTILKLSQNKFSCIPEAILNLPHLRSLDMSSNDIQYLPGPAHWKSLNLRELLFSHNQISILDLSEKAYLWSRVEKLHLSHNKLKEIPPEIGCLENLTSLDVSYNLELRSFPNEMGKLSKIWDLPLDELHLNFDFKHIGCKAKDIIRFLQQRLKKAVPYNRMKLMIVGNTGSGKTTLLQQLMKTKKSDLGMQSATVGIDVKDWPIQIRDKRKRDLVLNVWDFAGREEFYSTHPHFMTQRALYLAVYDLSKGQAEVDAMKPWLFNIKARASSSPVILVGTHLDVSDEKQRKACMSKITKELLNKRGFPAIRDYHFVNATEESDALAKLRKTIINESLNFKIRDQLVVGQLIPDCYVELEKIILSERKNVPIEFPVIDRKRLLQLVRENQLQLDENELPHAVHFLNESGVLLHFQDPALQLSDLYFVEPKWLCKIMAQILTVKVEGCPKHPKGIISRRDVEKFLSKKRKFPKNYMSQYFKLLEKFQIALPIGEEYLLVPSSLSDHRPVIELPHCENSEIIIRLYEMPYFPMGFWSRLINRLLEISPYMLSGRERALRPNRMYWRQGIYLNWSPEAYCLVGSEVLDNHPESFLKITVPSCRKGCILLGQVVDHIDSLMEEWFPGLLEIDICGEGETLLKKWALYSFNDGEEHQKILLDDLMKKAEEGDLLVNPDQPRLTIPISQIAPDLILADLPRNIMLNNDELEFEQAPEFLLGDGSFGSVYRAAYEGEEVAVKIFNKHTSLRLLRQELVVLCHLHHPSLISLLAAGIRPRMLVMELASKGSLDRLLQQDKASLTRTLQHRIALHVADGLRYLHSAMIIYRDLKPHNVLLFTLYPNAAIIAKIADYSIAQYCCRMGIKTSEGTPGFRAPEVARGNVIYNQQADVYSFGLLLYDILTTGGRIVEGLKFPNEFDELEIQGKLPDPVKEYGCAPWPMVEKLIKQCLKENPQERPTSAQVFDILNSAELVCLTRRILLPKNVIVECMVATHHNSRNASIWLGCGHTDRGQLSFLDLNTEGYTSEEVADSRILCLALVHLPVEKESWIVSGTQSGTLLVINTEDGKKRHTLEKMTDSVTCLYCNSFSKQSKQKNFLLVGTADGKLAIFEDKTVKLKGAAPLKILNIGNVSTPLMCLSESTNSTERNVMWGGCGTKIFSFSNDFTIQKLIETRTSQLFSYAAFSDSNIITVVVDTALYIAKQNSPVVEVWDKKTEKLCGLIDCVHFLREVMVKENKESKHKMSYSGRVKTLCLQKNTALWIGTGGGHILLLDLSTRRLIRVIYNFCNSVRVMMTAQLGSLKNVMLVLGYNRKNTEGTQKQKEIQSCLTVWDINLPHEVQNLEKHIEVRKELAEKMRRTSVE

IC50, < 0.631 nM:
Cc1c(Nc2ncc3cc(Cl)c(C4CCN(C5COCC5F)CC4)cc3n2)cnn1C1CC1 (stereo unspecified), N#CC1COCC1N1CCC(c2cc3nc(Nc4cnn(C5CC5)c4Cl)ncc3cc2Cl)CC1 (stereo unspecified), Cc1cc(Nc2ncc3cc(Cl)c(C4CCN(C5COC5)CC4)cc3n2)sn1, Cc1c(Nc2ncc3cc(Cl)c(C4CCN(C5COC5)[C@@H](C)C4)cc3n2)cnn1C1CC1 (stereo partly specified), Cc1c(Nc2ncc3cc(Cl)c(C4CCN(C5(C)COC5)CC4)cc3n2)cnn1C1CCOC1 (stereo unspecified), O=S1(=O)CC(N2CCC(c3cc4nc(Nc5cnn(C6CC6)c5Cl)ncc4cc3Cl)CC2)C1
